The record followed here is paper PMC6072516, “Rational design and synthesis of novel phenylsulfonyl-benzamides as anti-prostate cancer agents” (MedChemComm, 2017).

Where two headings read alike, the source gives them in different places.

The nature of data set [1]: Cell Titer Blue viability (cytotoxicity) assay. In kind it is cell-based, human. The conditions noted are these: human. Here is the method:
A Cell Titer Blue viability assay was performed in the human embryonic kidney cell line HEK293, in order to evaluate the cytotoxicity profile of the newly prepared compounds. […] .
Fig. 5 HEK293 human embryonic kidney cells were treated at 70% confluence with negative controls (0.1% DMSO, BICAL at 10 μM), positive control (10% DMSO) and compounds at 10 μM concentration for 24 hours. […] Fluorescence was measured at 560/590 nm using a CLARIOstar luminescence plate reader (BMG Labtech). N = 4, n = 6 for controls, n = 3 for drugs. […]
for calculation of the geometric mean value. […]
of 0.05% Trypsin/EDTA. […] When all cells […]
chamber counting grid (Immune Systems). […]
confluence for assay the next day. […]
drugs at 10 µM concentration.
100 µl media. […] Fluorescence was measured
USA). […] The Dunnett’s multiple […]
comparison test was used to compare each drug and the positive control to the negative control […]
Compound R1 X R2 Cell Viability Antiproliferative
Mean (%)* SEM** Abs. IC50
Table S2. Cell Viability assay at 10 µM. * Mean % of cell viability relative to control; ** Errors are calculated as standard error of the mean; ***Geometric mean.
In general terms: Alamar Blue is a resazurin reagent that responds to reducing activity.

The test system of data set [2] is four human prostate cancer cell lines: LNCaP, 22Rv1, VCaP, DU145. The data set can be described thus: Antiproliferative assay, overall effect in the four cell lines (geometric mean). The note with it: for IC50: geometric mean of the four cell lines, read-out: Absolute IC50 Geo. mean. In kind it is cell-based. Here is the method:
PCR based DNA-fingerprinting methodology.
density of 4.000 – 30.000 cells/well.
test compound were added.
concentrations in triplicate.
After an incubation period of
control/background ratio >3.0
The absolute IC50 value reflects the
The calculation was done by a 4
for calculation of the geometric mean value.
of 0.05% Trypsin/EDTA. […] When all cells

The test system of data set [3] is 22Rv1. The data set can be described thus: 2D monolayer antiproliferative assay (propidium iodide), 22Rv1. The conditions noted are these: Homo sapiens, 22Rv1, 96 h, read-out: Absolute IC50 22Rv1.
Method: (§1) All new compounds along with the two standards were tested for their ability to inhibit survival and/or cell proliferation in four human prostate cancer cell lines: LNCaP, 22Rv1, VCaP, androgen-sensitive cell lines, and DU145, a non hormone-sensitive cell line.
(§2) Compound Handling: Stock solutions for all inhibitors were prepared in DMSO at a
(§3) were well soluble at this concentration in DMSO and precipitation was not observed for any
(§4) compound dissolved in 100% DMSO. Aliquots of the stock solution were thawed on the day
(§5) of use and stored at room temperature prior to and during treatment. The subsequent dilutions
(§6) were done with complete RPMI1640 cell culture medium. The DMSO stock solution was first
(§7) Starting with this solution, serial dilutions in
(§8) half-log steps with cell culture medium were done using an intermediate dilution plate. Finally,
(§9) 10 µl taken from the intermediate dilution plate were transferred to 140 µl / well of the cell
(§10) culture plate. Thus, at the highest test concentration the DMSO stock was diluted 1:330,
(§11) corresponding to a maximum DMSO concentration of 0.3 % v/v in the assay. Solubility of the
(§12) diluted compounds in the assay was monitored under the microscope by visual inspection of
(§13) the treated cell lines after the 4 days incubation. Precipitation as observed by crystalline
(§14) Tumor Cell lines: The cell line panel used for assessing the novel inhibitors comprised four
(§15) cell lines derived from human prostate cancers.
(§16) 6-7 Cell lines were routinely passaged once or twice weekly and maintained in culture for up to 20 passages. All cells were grown at 37°C in
(§17) glutamine, #FG1385, Biochrom, Berlin, Germany) supplemented with 10% (v/v) fetal calf serum (Sigma, Taufkirchen, Germany) and 0.1 mg/mL gentamicin (Life Technologies,
(§18) Cell Proliferation Assay: A modified propidium iodide (PI) based monolayer assay was used
(§19) exponential phase cultures, counted and plated in 96-well flat-bottom micro titer plates at a cell density of 4.000 – 30.000 cells/well. After a 24 h recovery period to allow the cells to resume exponential growth, 10 µl of culture medium (six control wells/plate) or culture medium with test compound were added. The compounds were applied in half-log increments at 10 concentrations in triplicate. After a total treatment period of 96 h, cells were washed with 200 µl PBS to remove dead cells and debris. Then, 200 µl of a solution containing 7 µg/ml propidium iodide (PI) and 0.1% (v/v) Triton X-100 was added. After an incubation period of 1-2 hours at room temperature, fluorescence (FU) was measured using the EnSpire Multimode Plate Reader (excitation λ= 530 nm, emission λ= 620 nm) to quantify the amount of attached
(§20) For calculation of mean IC50 values the geometric mean was used.
(§21) Data Evaluation: An assay was considered fully evaluable if the following quality control
(§22) - Z’-factor calculated within the assay plate ≥0.59
(§23) - fluorescence intensity of >500 U from the untreated control wells, equivalent to a
(§24) - coefficient of variation in the growth control wells ≤30
(§25) Compound effects were expressed in terms of the percentage of the fluorescence signal, obtained by comparison of the mean signal in the treated wells with the mean signal of the untreated controls (expressed by the test-versus-control value, T/C-value [%]):
For data set [4], the system named is DU-145. The data set can be described thus: 2D monolayer antiproliferative assay (propidium iodide), DU-145. The note with it: Homo sapiens, DU-145, 96 h, read-out: Absolute IC50 DU-145.
Method: as §1, §2, §3, §4, §5, §6, §7, §8, §9, §10, §11, §12, §13, §14, §15, §16, §17, §18, §19, §20, §21, §22, §23, §24, §25
Data set [5] has as its system VCaP. The data set can be described thus: 2D monolayer antiproliferative assay (propidium iodide), VCaP. The note with it: Homo sapiens, 96 h, read-out: Absolute IC50 VCaP.
Method: as §1, §2, §3, §4, §5, §6, §7, §8, §9, §10, §11, §12, §13, §14, §15, §16, §17, §18, §19, §20, §21, §22, §23, §24, §25
The subject of data set [6] is LNCaP. The data set can be described thus: 2D monolayer antiproliferative assay (propidium iodide), LNCaP. The conditions noted are these: for IC50: Homo sapiens, LNCaP, 96 h, read-out: Absolute IC50 LNCaP.
Method: as §1, §2, §3, §4, §5, §6, §7, §8, §9, §10, §11, §12, §13, §14, §15, §16, §17, §18, §19, §20, §21, §22, §23, §24, §25
The mark [7] stands for this setting: 10 µM, 24 h, HEK293, mean % of cell viability relative to control, read-out: Cell Viability Mean (%).

`C[C@](O)(CS(=O)(=O)c1ccc(F)cc1)C(=O)Nc1ccc(C#N)c(C(F)(F)F)c1` [Bicalutamide, bicalutamide, reference compound]: the viability (as a rule, a read-out of living cells in per cent, often relative to untreated cells) at 24 h, 10 µM in data set [1] (HEK293 cells, 10 µM, 24 h, HEK293, mean % of cell viability relative to control, read-out: Cell Viability Mean (%)) was found to be 94.6%. For the same compound, the results for the IC50 in data set [2] (Homo sapiens) and in data set [2] were 50 µM and 52.4 µM, respectively.
For `N#Cc1ccc(NC(=O)c2ccc(Sc3ccc(O)cc3)cc2)cc1C(F)(F)F` [Compound 11a], in data set [1] (setting [7]), the viability at 24 h, 10 µM is 65.7%. Also, the IC50 (commonly the concentration that gives 50% inhibition) in data set [3] stood at 6.24 µM; in data set [4], 7.77 µM; in data set [5], 9.55 µM; in data set [2] (Homo sapiens), 7.08 µM; in data set [6] it was 5.43 µM.
As for `O=C(Nc1ccc([N+](=O)[O-])c(C(F)(F)F)c1)c1ccc(Sc2ccc(O)cc2)cc1` [Compound 11b], the viability at 24 h, 10 µM in data set [1] came out at 65.4%. For the same compound, the IC50 stood at 4.5 µM in data set [3]; 5.74 µM in data set [4]; 5.19 µM in data set [5]; 4.68 µM in data set [2] (Homo sapiens); 3.58 µM in data set [6].
Turning to `O=C(Nc1cc(C(F)(F)F)cc(C(F)(F)F)c1)c1ccc(Sc2ccc(O)cc2)cc1` [Compound 11c], in data set [1], the viability at 24 h, 10 µM stood at 64.2%. Besides, the IC50 is 3.35 µM in data set [3]; 5.6 µM in data set [4]; 2.59 µM in data set [5]; 3.28 µM in data set [2] (Homo sapiens); 2.39 µM in data set [6].
In the case of `O=C(Nc1cc(C(F)(F)F)ccc1C(F)(F)F)c1ccc(Sc2ccc(O)cc2)cc1` [Compound 11d], the viability at 24 h, 10 µM in data set [1] amounted to 53.7%. The IC50 is 10.3 µM in data set [3]; 16.6 µM in data set [4]; 10.9 µM in data set [5]; 12.1 µM in data set [2] (Homo sapiens); 11.4 µM in data set [6].
For `O=C(Nc1ccc(S(F)(F)(F)(F)F)cc1)c1ccc(Sc2ccc(O)cc2)cc1` [Compound 11e], the viability at 24 h, 10 µM in data set [1] was 49.5%. For the same compound, the IC50 in data set [3] stood at 3.71 µM; in data set [4], 6.76 µM; in data set [5] it was 7.15 µM; in data set [2] (Homo sapiens), 5.43 µM; in data set [6] it was 4.86 µM.
Regarding `O=C(Nc1cccc(S(F)(F)(F)(F)F)c1)c1ccc(Sc2ccc(O)cc2)cc1` [Compound 11f], the viability at 24 h, 10 µM in data set [1] was 60.5%. For the same compound, the IC50 turned out to be 2.94 µM in data set [3]; 4.35 µM in data set [4]; 6.1 µM in data set [5]; 4.01 µM in data set [2] (Homo sapiens); 3.32 µM in data set [6].
`O=C(Nc1ccc(C(F)(F)F)cc1)c1ccc(Sc2ccc(O)cc2)cc1` [Compound 11g]: in data set [1], the viability at 24 h, 10 µM stood at 66.3%. Moreover, the IC50 came to 6.23 µM in data set [3]; 8.55 µM in data set [4]; 9.68 µM in data set [5]; 8.09 µM in data set [2] (Homo sapiens); 8.3 µM in data set [6].
Turning to `O=C(Nc1cccc(C(F)(F)F)c1)c1ccc(Sc2ccc(O)cc2)cc1` [Compound 11h], in data set [1], the viability at 24 h, 10 µM was 85.6%. Also, the IC50 in data set [3] stood at 5.73 µM; in data set [4] it was 5.95 µM; in data set [5] it was 10.6 µM; in data set [6], 9.66 µM.
For `O=C(Nc1ccccc1C(F)(F)F)c1ccc(Sc2ccc(O)cc2)cc1` [Compound 11i], in data set [1], the viability at 24 h, 10 µM was found to be 111%. For the same compound, the IC50 in data set [3] is 30.9 µM; in data set [4], 35.7 µM; in data set [5], 32.3 µM; in data set [2] (Homo sapiens), 25.2 µM; in data set [6], 11.4 µM. In data set [2] (11h vs 11i), the “reduction of overall effect in the four cell lines, ortho vs meta CF3” value amounted to 3 fold.
On to `N#Cc1ccc(NC(=O)c2ccc(Sc3cccc(C(F)(F)F)c3)cc2)cc1C(F)(F)F` [Compound 12a], for which, in data set [1] (setting [7]), the viability at 24 h, 10 µM was 60%. The IC50 in data set [3] was 3.57 µM; in data set [4], 5.12 µM; in data set [5], 5.66 µM; in data set [2] (Homo sapiens) it was 5.5 µM; in data set [6], 8.87 µM.
`O=C(Nc1cccc(C(F)(F)F)c1)c1ccc(Sc2cccc(C(F)(F)F)c2)cc1` [Compound 12h]: the viability at 24 h, 10 µM in data set [1] was found to be 112%. Besides, the IC50 was 6.96 µM in data set [3]; 9.89 µM in data set [4]; 28.2 µM in data set [5]; below 16 µM in data set [2] (Homo sapiens); 12.5 µM in data set [2]; 12.5 µM in data set [6].
For `N#Cc1ccc(NC(=O)c2ccc(S(=O)(=O)c3ccc(O)cc3)cc2)cc1C(F)(F)F` [Compound 13a], the viability at 24 h, 10 µM in data set [1] (setting [7]) was determined as 73%. The IC50 in data set [3] turned out to be 12.1 µM; in data set [4], 12.6 µM; in data set [5], 8.56 µM; in data set [2] (Homo sapiens) it was 8.84 µM; in data set [6] it was 4.68 µM.
As to `O=C(Nc1ccc([N+](=O)[O-])c(C(F)(F)F)c1)c1ccc(S(=O)(=O)c2ccc(O)cc2)cc1` [Compound 13b], the viability at 24 h, 10 µM in data set [1] amounted to 82.3%. Also, the IC50 in data set [3] is 7.3 µM; in data set [4] it was 8.85 µM; in data set [5] it was 8.57 µM; in data set [6], 4.96 µM.
Regarding `O=C(Nc1cc(C(F)(F)F)cc(C(F)(F)F)c1)c1ccc(S(=O)(=O)c2ccc(O)cc2)cc1` [Compound 13c], in data set [1], the viability at 24 h, 10 µM came out at 65.7%. The IC50 in data set [3] was 6.44 µM; in data set [4], 9.92 µM; in data set [5], 9.72 µM; in data set [2] (Homo sapiens), 8.5 µM; in data set [6], 8.41 µM. For the same compound, the “increase of IC50 values, sulfone vs thioether” value in data set [2] (11c vs 13c) is listed as “up to 2 fold”.
Take `O=C(Nc1cc(C(F)(F)F)ccc1C(F)(F)F)c1ccc(S(=O)(=O)c2ccc(O)cc2)cc1` [Compound 13d]: the IC50 was 20.7 µM in data set [3]; 27.8 µM in data set [4]; 30.5 µM in data set [5]; 25.2 µM in data set [2] (Homo sapiens); 23.2 µM in data set [6].
For `O=C(Nc1cccc(S(F)(F)(F)(F)F)c1)c1ccc(S(=O)(=O)c2ccc(O)cc2)cc1` [Compound 13f, N-(3-(Pentafluorosulfanyl)phenyl)-4-((4-hydroxyphenyl)sulfonyl)benzamide], in data set [1], the viability at 24 h, 10 µM came out at 76.2%. The IC50 in data set [3] came out at 5.66 µM; in data set [4], 6.01 µM; in data set [5], 10.8 µM; in data set [2] (Homo sapiens) it was 6.18 µM; in data set [6], 3.98 µM.
For the compound `O=C(Nc1ccc(C(F)(F)F)cc1)c1ccc(S(=O)(=O)c2ccc(O)cc2)cc1` [Compound 13g], the viability at 24 h, 10 µM in data set [1] was found to be 61.8%. For the same compound, the IC50 is 16.8 µM in data set [3]; 30.7 µM in data set [4]; 27.2 µM in data set [5]; 19.7 µM in data set [2] (Homo sapiens); 10.8 µM in data set [6].
Take `O=C(Nc1cccc(C(F)(F)F)c1)c1ccc(S(=O)(=O)c2ccc(O)cc2)cc1` [Compound 13h]: the viability at 24 h, 10 µM in data set [1] came out at 87.6%. The IC50 in data set [3] is 15.1 µM; in data set [4] it was 17.7 µM; in data set [5] it was 30.1 µM; in data set [2] (Homo sapiens) it was below 16 µM; in data set [2], 16.8 µM; in data set [6] it was 10.2 µM.
On to `O=C(Nc1ccccc1C(F)(F)F)c1ccc(S(=O)(=O)c2ccc(O)cc2)cc1` [Compound 13i], for which the viability at 24 h, 10 µM in data set [1] is 129%. In addition, the IC50 in data set [3] worked out at 49.3 µM; in data set [4], 45.9 µM; in data set [5] it was 65.2 µM; in data set [2] (Homo sapiens) it was 49.1 µM; in data set [6], 39.3 µM.
With `O=C(Nc1ccc(S(F)(F)(F)(F)F)cc1)c1ccc([S+]([O-])c2ccc(O)cc2)cc1` (centres unmarked) [Compound 14e, 4-((4-Hydroxyphenyl)sulfinyl)-N-(4-(pentafluorothio)phenyl)benzamide], the viability at 24 h, 10 µM in data set [1] worked out at 59.7%. Further, the IC50 in data set [3] came out at 5.6 µM; in data set [4] it was 11 µM; in data set [5] it was 3.53 µM; in data set [2] (Homo sapiens) it was 3.75 µM; in data set [6] it was 0.9 µM. The “Absolute IC50 LNCaP” value in data set [6] (96 h treatment, mean of triplicate, SD ±10%) was “sub μM”.
On to `O=C(Nc1ccccc1C(F)(F)F)c1ccc([S+]([O-])c2ccc(O)cc2)cc1` (centres unmarked) [Compound 14i], for which, in data set [1], the viability at 24 h, 10 µM was 104%. Also, the IC50 is above 100 µM in data set [3], above 100 µM in data set [4], 97.6 µM in data set [5] and 62 µM in data set [6].
Consider `N#Cc1ccc(NC(=O)c2ccc(S(=O)(=O)c3cccc(C(F)(F)F)c3)cc2)cc1C(F)(F)F` [Compound 15a], for which the viability at 24 h, 10 µM in data set [1] (setting [7]) worked out at 79%. The IC50 is 3.57 µM in data set [3]; 4.7 µM in data set [4]; 7.87 µM in data set [5]; 4.71 µM in data set [2] (Homo sapiens); 3.73 µM in data set [6].
`O=C(Nc1cccc(C(F)(F)F)c1)c1ccc(S(=O)(=O)c2cccc(C(F)(F)F)c2)cc1` [Compound 15h]: the viability at 24 h, 10 µM in data set [1] came to 83.9%.
